Results taken from ChEMBL document CHEMBL2396653, “Synthesis and antimycobacterial evaluation of N-substituted 5-chloropyrazine-2-carboxamides” (Bioorg Med Chem Lett, 2013).
In brackets after ≈: the same amount, converted by molar mass.

Legend:
[1] = system: Mycobacterium tuberculosis variant bovis; assay: Antimycobacterial activity against pyrazinamide-resistant Mycobacterium bovis ATCC 27289 assessed as growth inhibition after 24 hrs to 2 weeks by microbroth dilution method; format: functional
[2] = system: Mycobacterium tuberculosis variant bovis; assay: Antimycobacterial activity against pyrazinamide-resistant Mycobacterium bovis ATCC 35720 assessed as growth inhibition after 24 hrs to 2 weeks by microbroth dilution method; format: functional

NC(=O)c1cnc(Cl)cn1 showed an MIC [1] of 8 µg/mL (≈ 50.8 µM) and an MIC [2] of 8 µg/mL (≈ 50.8 µM).
